In article PMC10439185 (Cell Reports Medicine, 2023):

How the values were obtained:
PPT1 = target: T1, PPT1 (Mus musculus, UniProt O88531); assay: microscale thermophoresis; format: binding
T1 sequence (O88531 28-306): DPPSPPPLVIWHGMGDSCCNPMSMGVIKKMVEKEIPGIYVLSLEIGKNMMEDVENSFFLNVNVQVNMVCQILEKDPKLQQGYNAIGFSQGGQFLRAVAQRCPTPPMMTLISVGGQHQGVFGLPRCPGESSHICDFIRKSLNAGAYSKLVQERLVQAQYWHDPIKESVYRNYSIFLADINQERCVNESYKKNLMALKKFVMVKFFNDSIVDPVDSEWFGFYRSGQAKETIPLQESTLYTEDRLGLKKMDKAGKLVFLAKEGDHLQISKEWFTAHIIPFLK

PPT1 (endogenous, BMDMs) = target: T2, PPT1 (endogenous, BMDMs) (Mus musculus, UniProt O88531); assay: cellular thermal shift assay, immunoblot; format: cell-based; conditions: intact BMDMs, 37-62 °C, 3 min
T2 sequence (O88531 28-306): T1 sequence (O88531 28-306)

- Kd (PPT1): 863 µM
SMILES: O=C(O)C(=O)Cc1ccccc1 [phenylpyruvate]
- thermal shift (PPT1 (endogenous, BMDMs)): phenylpyruvate treatment significantly changed PPT1 protein stability after heating
